We go through 26 compounds from patent US10344025B2, “GLS1 inhibitors for treating disease” (Board of Regents, The University of Texas System, priority 2014, dated 2019).

The EC50 is the concentration giving half of the maximal effect. Read a high EC50 as a need for much substance. One may read the IC50 as the concentration needed to halve the response being measured.

The test system of one assay is A549 cells. Nature of the assay: Proliferation Assay (A549 viability, Cell Titer Fluor, 72 hours). The format is cell-based. The settings on record: Homo sapiens. The procedure, abridged: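 Cell Titer Fluor fluorescence after 72 h compound treatment (0.5% DMSO, 37 °C, 5% CO2) of A549 cells plated 24 h earlier at 1000/well. Four-parameter logistic fitting gave IC50.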

Assay [1] addresses purified recombinant human GAC (GLS1) (Homo sapiens (Human), UniProt O94925). Description: GLS1 Enzymatic Activity Assay (dual-coupled enzymatic assay, resorufin/Amplex UltraRed readout).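 Further: glutamate from GAC coupled via glutamate oxidase and peroxidase to resorufin, read as fluorescence (ex 530, em 590 nm) kinetically or at 20 min, four-parameter logistic IC50 fit.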 Format: biochemical.

Sequence of purified recombinant human GAC (GLS1) (O94925 other isoform, or with tags, fused parts or gaps): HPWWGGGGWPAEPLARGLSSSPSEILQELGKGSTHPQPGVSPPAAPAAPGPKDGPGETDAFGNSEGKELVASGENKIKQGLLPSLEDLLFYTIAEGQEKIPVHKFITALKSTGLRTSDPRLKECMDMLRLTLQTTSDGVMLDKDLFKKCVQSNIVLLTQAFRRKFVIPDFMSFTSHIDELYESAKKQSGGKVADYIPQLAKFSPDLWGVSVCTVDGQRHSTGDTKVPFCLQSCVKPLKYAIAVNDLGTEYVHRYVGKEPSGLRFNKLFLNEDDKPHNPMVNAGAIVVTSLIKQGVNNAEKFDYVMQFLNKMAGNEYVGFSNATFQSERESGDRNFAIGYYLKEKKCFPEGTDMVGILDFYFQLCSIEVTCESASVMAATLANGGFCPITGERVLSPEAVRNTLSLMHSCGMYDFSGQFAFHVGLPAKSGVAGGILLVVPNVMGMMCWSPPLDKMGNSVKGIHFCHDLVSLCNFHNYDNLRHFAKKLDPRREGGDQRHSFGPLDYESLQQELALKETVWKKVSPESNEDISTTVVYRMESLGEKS

Regarding `COCCNC(=O)c1nnc(CCC(F)Cn2cc(C(=O)NCc3cccc(OC(F)(F)F)c3)nn2)s1` (stereo not shown) [Example 523, 5-{3-fluoro-4-[4-({[3-(trifluoromethoxy)phenyl]methyl}carbamoyl)-1H-1,2,3-triazol-1-yl]butyl}-N-(2-methoxyethyl)-1,3,4-thiadiazole-2-carboxamide], the EC50 with A549 cells (A549, 72 h) lay within 500 to 5000 nM. The IC50 in assay [1] is 100 to 500 nM.

As to `CNC(=O)c1cn(CCC(F)Cn2cc(NC(=O)Cc3cccc(OC(F)(F)F)c3)nn2)nn1` (stereo not shown) [Example 524, 1-[3-fluoro-4-(4-{2-[3-(trifluoromethoxy)phenyl]acetamido}-1H-1,2,3-triazol-1-yl)butyl]-N-methyl-1H-1,2,3-triazole-4-carboxamide], the EC50 with A549 cells (A549, 72 h) lay in the range of 100 to 500 nM. Further, the IC50 in assay [1] is less than 100 nM.

As to `CNC(=O)c1cn(CCC(F)Cn2cc(NC(=O)Cc3cc(OC(F)(F)F)ccc3F)nn2)nn1` (stereo not shown) [Example 525, 1-[3-fluoro-4-(4-{2-[2-fluoro-5-(trifluoromethoxy)phenyl]acetamido}-1H-1,2,3-triazol-1-yl)butyl]-N-methyl-1H-1,2,3-triazole-4-carboxamide], the EC50 in the assay on A549 cells (A549, 72 h) lay in the range of 100 to 500 nM. For the same compound, the IC50 in assay [1] was less than 100 nM.

`NC(=O)c1cn(CC(F)CCc2nnc(NC(=O)Cc3cccc(OC(F)(F)F)c3)s2)nn1` (stereo not shown) [Example 530, 1-[2-fluoro-4-(5-{2-[3-(trifluoromethoxy)phenyl]acetamido}-1,3,4-thiadiazol-2-yl)butyl]-1H-1,2,3-triazole-4-carboxamide] returned an EC50 with A549 cells (A549, 72 h) of 500 to 5000 nM. Besides, the IC50 in assay [1] was less than 100 nM.

Take `CCNC(=O)c1cn(CC(F)CCc2nnc(NC(=O)Cc3cccc(OC(F)(F)F)c3)s2)nn1` (stereo not shown) [Example 531, N-ethyl-1-[2-fluoro-4-(5-{2-[3-(trifluoromethoxy)phenyl]acetamido}-1,3,4-thiadiazol-2-yl)butyl]-1H-1,2,3-triazole-4-carboxamide]: in the assay with A549 cells (A549, 72 h), the EC50 lay in the range of 100 to 500 nM. For the same compound, in assay [1], the IC50 was less than 100 nM.

Regarding `COCCNC(=O)c1cn(CC(F)CCc2nnc(NC(=O)Cc3cccc(OC(F)(F)F)c3)s2)nn1` (stereo not shown) [Example 532, 1-[2-fluoro-4-(5-{2-[3-(trifluoromethoxy)phenyl]acetamido}-1,3,4-thiadiazol-2-yl)butyl]-N-(2-methoxyethyl)-1H-1,2,3-triazole-4-carboxamide], the EC50 with A549 cells (A549, 72 h) was 100 to 500 nM. Further, in assay [1], the IC50 is less than 100 nM.

Compound `O=C(Cc1cccc(OC(F)(F)F)c1)Nc1nnc(CCC(F)Cn2cc(C(=O)NCc3ccccn3)nn2)s1` (stereo not shown) [Example 533, 1-[2-fluoro-4-(5-{2-[3-(trifluoromethoxy)phenyl]acetamido}-1,3,4-thiadiazol-2-yl)butyl]-N-(pyridin-2-ylmethyl)-1H-1,2,3-triazole-4-carboxamide] registered an EC50 in the assay on A549 cells (A549, 72 h) of less than 100 nM. For the same compound, in assay [1], the IC50 was less than 100 nM.

For the compound `O=C(Cc1cccc(OC(F)(F)F)c1)Nc1nnc(CCC(F)Cn2cc(C(=O)NC3CC3)nn2)s1` (stereo not shown) [Example 534, N-cyclopropyl-1-[2-fluoro-4-(5-{2-[3-(trifluoromethoxy)phenyl]acetamido}-1,3,4-thiadiazol-2-yl)butyl]-1H-1,2,3-triazole-4-carboxamide], the EC50 with A549 cells (A549, 72 h) fell in the range of 100 to 500 nM. For the same compound, the 50% inhibitory concentration (IC50) in assay [1] was less than 100 nM.

Take `O=C(Cc1cccc(OC(F)(F)F)c1)Nc1nnc(CCC(F)Cn2cc(C(=O)NCC3CC3)nn2)s1` (stereo not shown) [Example 535, N-(cyclopropylmethyl)-1-[2-fluoro-4-(5-{2-[3-(trifluoromethoxy)phenyl]acetamido}-1,3,4-thiadiazol-2-yl)butyl]-1H-1,2,3-triazole-4-carboxamide]: the EC50 with A549 cells (A549, 72 h) was 100 to 500 nM. In addition, in assay [1], the IC50 is less than 100 nM.

On to `O=C(Cc1cccc(OC(F)(F)F)c1)Nc1nnc(CCC(F)Cn2cc(C(=O)NCC(F)(F)F)nn2)s1` (stereo not shown) [Example 536, 1-[2-fluoro-4-(5-{2-[3-(trifluoromethoxy)phenyl]acetamido}-1,3,4-thiadiazol-2-yl)butyl]-N-(2,2,2-trifluoroethyl)-1H-1,2,3-triazole-4-carboxamide], for which the EC50 in the assay on A549 cells (A549, 72 h) was in the range of 100 to 500 nM. The IC50 in assay [1] was less than 100 nM.

On to `O=C(Cc1cccc(OC(F)(F)F)c1)Nc1nnc(CCC(F)Cn2cc(C(=O)NCc3ncccc3F)nn2)s1` (stereo not shown) [Example 537, 1-[2-fluoro-4-(5-{2-[3-(trifluoromethoxy)phenyl]acetamido}-1,3,4-thiadiazol-2-yl)butyl]-N-[(3-fluoropyridin-2-yl)methyl]-1H-1,2,3-triazole-4-carboxamide], for which, in the assay on A549 cells (A549, 72 h), the concentration for a half-maximal effect (EC50) was 100 to 500 nM. Besides, the IC50 in assay [1] was less than 100 nM.

The compound `CNC(=O)c1cn(CC(F)CCn2cc(NC(=O)Cc3cccc(OC(F)(F)F)c3)nn2)nn1` (stereo not shown) [Example 538, 1-[2-fluoro-4-(4-{2-[3-(trifluoromethoxy)phenyl]acetamido}-1H-1,2,3-triazol-1-yl)butyl]-N-methyl-1H-1,2,3-triazole-4-carboxamide] came in with an EC50 in the assay on A549 cells (A549, 72 h) of 100 to 500 nM. Further, the IC50 in assay [1] was less than 100 nM.

With `CNC(=O)c1cn(CC(F)CCn2cc(NC(=O)Cc3cc(OC(F)(F)F)ccc3F)nn2)nn1` (stereo not shown) [Example 539, 1-[2-fluoro-4-(4-{2-[2-fluoro-5-(trifluoromethoxy)phenyl]acetamido}-1H-1,2,3-triazol-1-yl)butyl]-N-methyl-1H-1,2,3-triazole-4-carboxamide], the EC50 with A549 cells (A549, 72 h) was 100 to 500 nM. The IC50 in assay [1] was less than 100 nM.

In the assay on A549 cells, `O=C(Cc1ccccn1)Nc1nnc(CCC(F)Cn2cc(C(=O)NCc3cc(C(F)(F)F)ccn3)nn2)s1` (stereo not shown) [Example 540, 1-(2-fluoro-4-(5-(2-(pyridin-2-yl)acetamido)-1,3,4-thiadiazol-2-yl)butyl)-N-((4-(trifluoromethyl)pyridin-2-yl)methyl)-1H-1,2,3-triazole-4-carboxamide] registered an EC50 of less than 100 nM. The IC50 in assay [1] was less than 100 nM.

In the case of `CNC(=O)c1cn(CCCCc2ccc(NC(=O)Cc3cccc(Br)c3)nn2)nn1` [Example 542, 1-(4-{6-[2-(3-bromophenyl)acetamido]pyridazin-3-yl}butyl)-N-methyl-1H-1,2,3-triazole-4-carboxamide], the 50% effective concentration (EC50) in the assay on A549 cells (A549, 72 h) was in the range of 100 to 500 nM. Moreover, the IC50 in assay [1] is less than 100 nM.

As for `CNC(=O)c1cn(CCCCc2ccc(NC(=O)Cc3cccc(S(C)(=O)=O)c3)nn2)nn1` [Example 543, 1-(4-{6-[2-(3-methanesulfonylphenyl)acetamido]pyridazin-3-yl}butyl)-N-methyl-1H-1,2,3-triazole-4-carboxamide], in the assay on A549 cells (A549, 72 h), the EC50 was in the range of 500 to 5000 nM. For the same compound, the IC50 in assay [1] is less than 100 nM.

The compound `CNC(=O)c1cn(CCCCc2ccc(NC(=O)Cc3cccc(-c4ccccn4)c3)nn2)nn1` [Example 545, N-methyl-1-[4-(6-{2-[3-(pyridin-2-yl)phenyl]acetamido}pyridazin-3-yl)butyl]-1H-1,2,3-triazole-4-carboxamide] displayed an EC50 in the assay on A549 cells (A549, 72 h) of 100 to 500 nM. Further, the IC50 in assay [1] is less than 100 nM.

`CNC(=O)c1cn(CCCCc2ccc(NC(=O)CC3CCOCC3)nn2)nn1` [Example 547, N-methyl-1-(4-{6-[2-(oxan-4-yl)acetamido]pyridazin-3-yl}butyl)-1H-1,2,3-triazole-4-carboxamide] yielded an EC50 in the assay with A549 cells (A549, 72 h) of 500 to 5000 nM. In addition, the IC50 in assay [1] fell in the range of 100 to 500 nM.

On to `CNC(=O)c1cn(CCCCc2ccc(NC(=O)CC3CCCC3)nn2)nn1` [Example 548, 1-{4-[6-(2-cyclopentylacetamido)pyridazin-3-yl]butyl}-N-methyl-1H-1,2,3-triazole-4-carboxamide], for which the EC50 in the assay on A549 cells (A549, 72 h) was in the range of 500 to 5000 nM. The IC50 in assay [1] was 100 to 500 nM.

The compound `O=C(Cc1cccc(OC(F)(F)F)c1)Nc1ccc(CCCCn2cc(C(=O)NCC3COC3)nn2)nn1` [Example 550, N-(oxetan-3-ylmethyl)-1-[4-(6-{2-[3-(trifluoromethoxy)phenyl]acetamido}pyridazin-3-yl)butyl]-1H-1,2,3-triazole-4-carboxamide] showed an EC50 in the assay with A549 cells (A549, 72 h) of 100 to 500 nM. Moreover, the IC50 in assay [1] is less than 100 nM.

Regarding `O=C(Cc1cccc(OC(F)(F)F)c1)Nc1ccc(CCCCn2cc(C(=O)NCC(CO)CO)nn2)nn1` [Example 552, N-[3-hydroxy-2-(hydroxymethyl)propyl]-1-[4-(6-{2-[3-(trifluoromethoxy)phenyl]acetamido}pyridazin-3-yl)butyl]-1H-1,2,3-triazole-4-carboxamide], the EC50 with A549 cells (A549, 72 h) is greater than 5000 nM. In addition, the IC50 in assay [1] was 500 to 5000 nM.

`O=C(Cc1ccccn1)Nc1nnc(CCCCn2cc(C(=O)NCc3cccc(OC(F)(F)F)c3)nn2)s1` [Example 553, 1-(4-{5-[2-(pyridin-2-yl)acetamido]-1,3,4-thiadiazol-2-yl}butyl)-N-{[3-(trifluoromethoxy)phenyl]methyl}-1H-1,2,3-triazole-4-carboxamide]: in the assay with A549 cells (A549, 72 h), the EC50 was less than 100 nM. Further, the IC50 in assay [1] is less than 100 nM.

In the case of `O=C(Cc1ccccn1)Nc1nnc(CCCCn2cc(C(=O)NCc3cc(OC(F)(F)F)ccc3F)nn2)s1` [Example 554, N-{[2-fluoro-5-(trifluoromethoxy)phenyl]methyl}-1-(4-{5-[2-(pyridin-2-yl)acetamido]-1,3,4-thiadiazol-2-yl}butyl)-1H-1,2,3-triazole-4-carboxamide], the EC50 with A549 cells (A549, 72 h) was less than 100 nM. Moreover, the IC50 in assay [1] is less than 100 nM.

`CNC(=O)c1nnc(CCC(F)Cn2cc(C(=O)NCc3cc(OC(F)(F)F)ccc3F)nn2)s1` (stereo not shown) [Example 555, 5-{3-fluoro-4-[4-({[2-fluoro-5-(trifluoromethoxy)phenyl]methyl}carbamoyl)-1H-1,2,3-triazol-1-yl]butyl}-N-methyl-1,3,4-thiadiazole-2-carboxamide] gave an EC50 in the assay with A549 cells (A549, 72 h) of 100 to 500 nM. The IC50 in assay [1] is less than 100 nM.

On to `CNC(=O)c1nnc(CCC(F)Cn2cc(C(=O)NCc3ccccc3)nn2)s1` (stereo not shown) [Example 556, 5-{4-[4-(benzylcarbamoyl)-1H-1,2,3-triazol-1-yl]-3-fluorobutyl}-N-methyl-1,3,4-thiadiazole-2-carboxamide], for which the concentration giving a half-maximal response (EC50) in the assay on A549 cells (A549, 72 h) was 500 to 5000 nM. The IC50 in assay [1] was in the range of 100 to 500 nM.

For the compound `CNC(=O)c1nnc(CCC(F)Cn2cc(C(=O)NCc3ccccn3)nn2)s1` (stereo not shown) [Example 557, 5-(3-fluoro-4-{4-[(pyridin-2-ylmethyl)carbamoyl]-1H-1,2,3-triazol-1-yl}butyl)-N-methyl-1,3,4-thiadiazole-2-carboxamide], the EC50 in the assay on A549 cells (A549, 72 h) was 500 to 5000 nM. The IC50 in assay [1] lay within 500 to 5000 nM.
